Measured values: PubChem BioAssay (NCI)
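1) Cells in 96-well plates. 2) Compound, 48 h, 5 concentrations. 3) Linear interpolation between surrounding doses. 4) Unreached endpoint = highest concentration. Here, GI50 denotes the concentration required for 50% inhibition of growth. TGI: concentration producing complete growth inhibition.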

Assays:
Experiment in all cases: inhibition of tumour cell growth, NCI panel, 48 h
[1] = system: U251 CNS
[2] = system: SK-OV-3 ovarian
[3] = system: HOP-62 NSCLC
[4] = system: NCI-H226 lung
[5] = system: A498 renal
[6] = system: SF-539 CNS
[7] = system: SK-MEL-2 melanoma
[8] = system: COLO 205 colon
[9] = system: SW-620 colon
[10] = system: ACHN renal

Compound | TGI [1] [µM] | TGI [2] [µM] | TGI [3] [µM] | TGI [4] [µM] | TGI [5] [µM] | TGI [6] [µM] | TGI [7] [µM] | TGI [8] [µM] | TGI [9] [µM] | TGI [10] [µM] | GI50 [1] [µM] | GI50 [2] [µM] | GI50 [10] [µM] | GI50 [3] [µM] | GI50 [4] [µM] | GI50 [5] [µM] | GI50 [6] [µM] | GI50 [7] [µM] | GI50 [8] [µM] | GI50 [9] [µM]
NC(=S)N/N=C/c1ccc(OC(=O)COc2ccccc2Cl)cn1 | > 100 | > 100 | 67.4 | 73.9 | > 100 | 52.2 | > 100 | > 100 | > 100 |  |  |  |  |  |  |  |  |  |  | 
CCOC(=O)Oc1ccc2c(c1)c(=O)c1c(NCCCN(CC)CC)ccc3nnn2c31 | 23.6 | 23.4 | 12.5 | 19.8 | 23.2 | 19 | 30 | 25.1 | 16.2 | 15.8 |  |  |  |  |  |  |  |  |  | 
C/C([O-])=C(/c1nc(-c2ccc([N+](=O)[O-])o2)no1)[n+]1cc(C)ccc1C | 21.7 | > 79.3 | 37.3 | 31.6 | 33.8 | 27.6 | 19.7 | 15 | 16.9 |  |  |  |  |  |  |  |  |  |  | 
Cc1nc(N(CCO)CCO)c2sc(=S)n(-c3ccccc3)c2n1 | > 100 | > 100 | > 100 | > 100 | > 100 | > 100 | > 100 | > 100 | > 100 | > 100 |  |  |  |  |  |  |  |  |  | 
COc1cc(Cc2ccc3c(c2C#N)N(C)c2ccccc2S3)cc(OC)c1OC | > 100 | > 100 | > 100 | > 100 | > 100 | 42.7 | > 100 | > 100 | > 100 | > 100 |  |  |  |  |  |  |  |  |  | 
C/C(=N\NC(=S)Nc1ccc(Cl)cc1)c1nc2ncccc2[nH]1 | 14.5 | 60.8 | 18.1 | 8.25 | 20.2 | 8.27 | 22.5 | 17.5 | 35.5 | 15.8 |  |  |  |  |  |  |  |  |  | 
COc1cc(C2S/C(=C/c3ccccc3)C(=O)N2c2ccccc2Cl)cc(OC)c1OC (centres undefined) | 55.9 | > 100 | > 100 | > 100 | > 100 |  | 39.7 | > 100 |  | > 100 |  |  |  |  |  |  |  |  |  | 
Cc1ccc(S(=O)(=O)Nc2cc(Sc3ccccc3)c(O)c3ccccc23)cc1 | 3.84 | 29.8 | 25.5 | 39.3 | 28.8 | 9.51 | 16 | 42.4 | 16.2 | 10.4 | 1.94 | 15.6 | 2.8 | 7.99 | 14.7 | 13.1 | 3.19 | 3.73 | 19.5 | 3.91
COC(=O)C1=C(O)C(C(=O)OC)[C@@]2(O)[C@@H](C(=O)OC)CC[C@@H]1[C@@H]2C(=O)OC (some centres undefined) | 64.6 | 34.6 | 75.6 | 70.9 | 55.4 | 46.1 | 49.3 |  |  | > 100 |  |  |  |  |  |  |  |  |  | 
Cc1ncc(CO)c(C=NCCCCCCN=Cc2c(CO)cnc(C)c2O)c1O | > 100 | > 100 | > 100 | > 100 | > 100 | > 100 | > 100 | > 100 | > 100 | > 100 |  |  |  |  |  |  |  |  |  | 
CCOC(=O)C(=O)Nc1cccc(C)c1C | > 100 | > 100 | > 100 | > 100 | > 100 | > 100 | > 100 | > 100 | > 100 | > 100 |  |  |  |  |  |  |  |  |  | 
O=c1oc2c(ccc3c(O)cccc32)c2c1CCCC2 | 55.9 |  | 48.4 | > 100 | 80.8 | > 100 | > 100 | > 100 | > 100 | > 100 |  |  |  |  |  |  |  |  |  | 
CCOC(=O)/C(=N/Nc1ccc(Cl)cc1)N1C(=S)C=C(C)NN(C)C1=S | 39.5 | > 100 |  |  |  | > 100 | > 100 | > 100 | > 100 | > 100 |  |  |  |  |  |  |  |  |  | 
O=C(O)CN=c1c2ccccc2n(O)c2ccccc12 | > 100 | > 100 | > 100 | > 100 | > 100 |  | > 100 | > 100 | > 100 | > 100 |  |  |  |  |  |  |  |  |  | 
